# Test results reported in ChEMBL document CHEMBL4725361, “MicroRNA-Based Multitarget Approach for Alzheimer's Disease: Discovery of the First-In-Class Dual Inhibitor of Acetylcholinesterase and MicroRNA-15b Biogenesis” (J Med Chem, 2020).
# Active and inactive are the calls of the source. No cut-off for these calls is given here.
# Columns and labels:
# [1] = Binding affinity to 5'Dabcyl/3'-fluorescein-labelled pre-miRNA-15b (unknown origin) assessed as inhibition of dicer-mediated pre-miRNA processing […] by FRET assay
# [2] = target: T1, Acetylcholinesterase (Homo sapiens, UniProt P22303); assay: Inhibition of recombinant human AChE using ATC as substrate by DTNB-reagent based Ellman's method
# T1 sequence (P22303 whole entry): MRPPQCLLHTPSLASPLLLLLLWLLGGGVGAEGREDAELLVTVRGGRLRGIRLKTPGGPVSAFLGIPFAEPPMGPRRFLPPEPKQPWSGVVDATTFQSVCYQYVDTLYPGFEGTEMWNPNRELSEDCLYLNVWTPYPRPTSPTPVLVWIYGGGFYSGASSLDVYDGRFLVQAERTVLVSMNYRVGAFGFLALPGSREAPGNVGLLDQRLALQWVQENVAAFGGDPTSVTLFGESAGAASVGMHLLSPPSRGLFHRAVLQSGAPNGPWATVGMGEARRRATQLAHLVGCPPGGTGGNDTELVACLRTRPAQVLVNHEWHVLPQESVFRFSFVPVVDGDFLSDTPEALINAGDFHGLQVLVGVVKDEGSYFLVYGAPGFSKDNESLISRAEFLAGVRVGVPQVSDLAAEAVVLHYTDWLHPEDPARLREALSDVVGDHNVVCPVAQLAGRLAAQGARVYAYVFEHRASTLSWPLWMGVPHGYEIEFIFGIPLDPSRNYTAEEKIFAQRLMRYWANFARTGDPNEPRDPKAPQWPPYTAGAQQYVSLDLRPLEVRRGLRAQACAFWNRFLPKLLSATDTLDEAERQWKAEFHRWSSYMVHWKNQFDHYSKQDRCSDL
# [3] = Half life in pH 1.6 simulated gastric fluid at 100 uM by LC-MS/MS analysis; type: ADME
# [4] = Stability in human serum assessed as parent compound remaining at 100 uM measured after 2 hrs by LC-MS/MS analysis; type: ADME, cell-free; details: read-out: Stabilty
# [5] = Apparent permeability across basolateral to apical side in human Caco2 cells after 120 mins by LC-MS/MS analysis; type: ADME, cell-based; details: Caco-2
# [6] = Half life in Sprague-Dawley rat liver microsomes at 100 uM measured at 20 mins interval by LC-MS/MS analysis; type: ADME, Microsome
# [7] = Binding affinity to miRNA-15b variant (unknown origin) transfected in human SH-SY5Y cells at 0.5 to 10 uM preincubated with cells for 4 hrs followed by transfection and measured after 4 days by renilla luciferase reporter gene assay; type: cell-based; details: dose microM 0.5-10, time 4.0 hrs
# [8] = Solubility of the compound in pH 7.4 PBS buffer at 100 uM measured after 24 hrs by LC-MS/MS analysis; type: physicochemical
# [9] = target: Cholinesterase (Homo sapiens) (UniProt P06276); assay: Inhibition of human blood BChE at 1 to 25 uM using butyrylthiocholine iodide as substrate measured after 20 mins by fluorescence assay; type: tissue-based; details: dose microM 1-25, time 20.0 min
# Cholinesterase (Homo sapiens), sequence (P06276 whole entry): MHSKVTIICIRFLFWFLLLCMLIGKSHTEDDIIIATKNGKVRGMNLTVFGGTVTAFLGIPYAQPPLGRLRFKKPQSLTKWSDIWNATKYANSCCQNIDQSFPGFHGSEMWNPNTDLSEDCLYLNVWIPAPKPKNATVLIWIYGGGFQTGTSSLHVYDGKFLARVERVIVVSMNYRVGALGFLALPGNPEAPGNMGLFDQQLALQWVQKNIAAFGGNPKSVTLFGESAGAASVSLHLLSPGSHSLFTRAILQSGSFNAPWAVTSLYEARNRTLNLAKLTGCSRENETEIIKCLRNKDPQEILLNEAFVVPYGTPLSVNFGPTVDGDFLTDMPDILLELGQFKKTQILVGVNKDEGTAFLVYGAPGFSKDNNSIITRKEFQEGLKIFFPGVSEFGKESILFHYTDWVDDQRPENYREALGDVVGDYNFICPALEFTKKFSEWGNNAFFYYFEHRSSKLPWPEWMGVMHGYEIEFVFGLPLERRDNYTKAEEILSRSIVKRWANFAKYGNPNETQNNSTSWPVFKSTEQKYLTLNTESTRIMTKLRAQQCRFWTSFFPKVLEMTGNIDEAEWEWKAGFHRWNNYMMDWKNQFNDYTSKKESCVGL
# [10] = Binding affinity to 5'Dabcyl/3'-fluorescein-labelled pre-miRNA212 (unknown origin) assessed as inhibition of recombinant human dicer-mediated pre-miRNA processing at 10 uM preincubated for 30 mins followed by dicer addition and measured after 5 hrs by FRET assay
# [11] = Apparent permeability across apical to basolateral side in human Caco2 cells after 120 mins by LC-MS/MS analysis; type: ADME, cell-based; details: Caco-2
# [12] = Half life in pH 6.5 simulated intestinal fluid at 100 uM by LC-MS/MS analysis; type: ADME
# [13] = target: T1, Acetylcholinesterase; assay: Mixed type inhibition of recombinant human AChE at […] using varying levels of ATC as substrate by Lineweaver-burk plot analysis; details: dose microM 0.5-10
# [14] = organism: Homo sapiens; assay: Inhibition of miRNA-15b biogenesis in human SH-SY5Y cells at 10 uM measured after 96 hrs by Trizol reagent based RT-qPCR analysis relative to control; type: cell-based
# [15] = Binding affinity to 5'Dabcyl/3'-fluorescein-labelled pre-miRNA146a (unknown origin) assessed as inhibition of recombinant human dicer-mediated pre-miRNA processing at 10 uM preincubated for 30 mins followed by dicer addition and measured after 5 hrs by FRET assay
# [16] = Partition coefficient, log P of the compound in pH 7.4 1-octanol/PBS buffer at 38 mg measured after 1 hr by LC-MS/MS analysis; type: physicochemical
# [17] = Binding affinity to 3'-fluorescein-labelled pre-miRNA-15b (unknown origin) measured after 30 mins by FRET assay
# [18] = Binding affinity to 5'Dabcyl/3'-fluorescein-labelled pre-miRNA124 (unknown origin) assessed as inhibition of recombinant human dicer-mediated pre-miRNA processing at 10 uM preincubated for 30 mins followed by dicer addition and measured after 5 hrs by FRET assay
# [19] = Binding affinity to 5'Dabcyl/3'-fluorescein-labelled pre-miRNA-15b (unknown origin) assessed as inhibition of recombinant human dicer-mediated pre-miRNA processing preincubated for 30 mins followed by dicer addition and measured after 5 hrs by FRET assay
# [20] = test system: SH-SY5Y; assay: Protection against amyloid beta oligomer-induced cytotoxicity in human SH-SY5Y cells expressing miRNA-15b assessed as cell viability at 10 uM after 72 hrs by MTT assay relative to control; type: functional; details: read-out: Activity
# [21] = test system: HEL 299; assay: Cytotoxicity against HEL 299 cells measured after 2 days by MTT assay; type: cell-based; details: Homo sapiens, HEL 299, 48 h
# [22] = Binding affinity to 5'Dabcyl/3'-fluorescein-labelled pre-miRNA-15b (unknown origin) assessed as inhibition of recombinant human dicer-mediated pre-miRNA processing at 10 uM preincubated for 30 mins followed by dicer addition and measured after 5 hrs by FRET assay
# [23] = Permeability of the compound in PBS/EtOH solution measured after 16 hrs by PAMPA; type: ADME; details: read-out: permeability
# [24] = target: T1, Acetylcholinesterase; assay: Inhibition of recombinant human AChE at 10 uM using ATC as substrate by DTNB-reagent based Ellman's method relative to control
compound,measurement,setting,value
COCCn1cnc2cc(NC(=O)c3ccccc3)cc(C(=O)NCc3cc(F)cc(F)c3)c21,IC50,[1],530 nM
same,IC50,[2],120 nM
same,half-life at 100 µM,[3],6.87 h
same,"remaining at 2 h, 100 µM",[4],99.1%
same,Papp B→A at 2 h,[5],36.5 ×10⁻⁶ cm/s
same,half-life at 100 µM,[6],> 5 h
same,Activity,[7],inactive
same,"solubility at 24 h, 100 µM",[8],34 µM
same,inhibition,[9],Active
same,inhibition,[10],inactive
same,Papp A→B at 2 h,[11],16.7 ×10⁻⁶ cm/s
same,half-life at 100 µM,[12],> 8.33 h
same,inhibition,[13],Active
same,inhibition,[14],55%
same,inhibition,[15],inactive
same,logD at 1 h,[16],2.34
same,Kd,[17],810 nM
same,inhibition,[18],inactive
same,IC50,[19],370 nM
same,viability at 10 µM,[20],90%
same,IC50,[21],> 50000 nM
same,inhibition,[22],Active
same,Papp at 16 h,[23],30.8 ×10⁻⁶ cm/s
same,inhibition,[24],> 90%
COc1cc2c(cc1OC)C(=O)C(CC1CCN(Cc3ccccc3)CC1)C2 (stereo unspecified) [DONEPEZIL],viability at 10 µM,[20],45%
CCN(C)C(=O)Oc1cccc([C@H](C)N(C)C)c1,inhibition,[9],Active
